Several values for one entry are separate records, joined by “and”; a condition that tells them apart may be missing. Equal entries are not always repeated.
Key:
recombinant human GR = recombinant human GR (Homo sapiens, UniProt P04150); test: GR Competitive Binding Assay; details: after correction for compound determined to be in solution by HPLC analysis; read-out: IC50, competition with [6,7-3H(N)]-dexamethasone for binding to GR
Procedure: All procedures were performed at 4° C.
Test compounds were dissolved to 1 mM in neat DMSO and then further diluted to 10×assay concentration in assay buffer supplemented with 10% v/v DMSO.

[1] = test system: tyrosine aminotransferase (TAT) in rat hepatoma cells; test: Induction of tyrosine aminotransferase (TAT) in H4-II-E-C3 rat hepatoma cells; type: cell-based
Procedure: H4-II-E-C3 rat hepatoma cells were incubated overnight in 96 well plates (20,000 cells/200 μl/well) in EMEM medium containing 10% heat inactivated FBS (fetal bovine serum). […] Control cells were treated with 0.1% DMSO. After 18 hours, the cells were lysed in a buffer containing 0.1% Triton X-100 and the TAT activity was measured in a photometric assay using tyrosine and -keto g lutarate as substrates (FIG. 3a).
The steroidal not dissociated GR/PR antagonist RU486 was used as control (FIG. 3b).

[2] = test system: MMTV-(mouse mammary tumor virus) promoter in HeLa cells; test: Stimulation of MMTV promoter (luciferase) in HeLa cells; type: cell-based
Procedure: HeLa cells stably co-transfected with the pHHLuc-construct containing a fragment of the MMTV-LTR (−200 to +100 relative to the transcription start site) cloned in front of the luciferase gene and the pcDNA3.1 plasmid (Invitrogen) constitutively expressing the resistance for the antibioticum geneticin. Clones with best induction of the MMTV-promoter were selected and used for further experiments.
Cells were cultured overnight in DMEM medium w/o phenol red supplemented with 3% CCS (charcoal treated calf serum) and then transferred to 96 well plates (20,000 cells/100 μl/well). […] Control cells were treated with DMSO only. Twenty four hours later the cells were lysed with cell lysis reagent (Promega, Cat. No. E1531), luciferase assay reagent (Promega, Cat. No. E1501) was added and the flash luminescence was measured using a BMG luminometer (FIG. 4a).
The steroidal non-selective GR/PR antagonist RU486 was used as control (FIG. 4b).

[3] = test system: LPS-induced IL-8 secretion in U-937 cells; test: GR-mediated inhibition of LPS-induced IL-8 secretion in U-937 cells; type: cell-based, human; details: 1 μg/ml LPS
Procedure: U-937 cells were incubated for 4 days in RPM11640 medium containing 10% CCS (charcoal treated calf serum). […] Control cells were treated with 0.1% DMSO.
Eighteen hours later the IL-8 concentration in the cell supernatant was measured by ELISA, using the “OptEIA human IL-8 set” (Pharmingen, Cat.No. 2654KI) (FIG. 5a).
The steroidal not dissociated GR/PR antagonist RU486 was used as control (FIG. 5b).

[4] = test system: ICAM-promoter in HeLa cells; test: Inhibition of TNF-α induced activation of the ICAM-promoter (luciferase) in HeLa cells; type: cell-based, human; details: 20 ng/ml TNF-α
Procedure: HeLa cells were stably co-transfected with a construct containing a 1.3 kb fragment of the human ICAM-promoter (−1353 to −9 relative to the transcription start site, cloned in front of the luciferase gene and the pcDNA3.1 plasmid (Invitrogen) which constitutively express the resistance for the antibioticum geneticin. Clones with best induction of the ICAM-promoter were selected and used for further experiments. Cells were transferred to 96 well plates (20,000 cells/100 μl/well) in DMEM medium supplemented with 3% CCS. On the following day the activation of the ICAM-promoter was induced by addition of 20 ng/ml recombinant TNF-α (R&D System, Cat. No. 210-TA). […] Control cells were treated with DMSO only. Twenty four hours later the cells were lysed with cell lysis reagent (Promega, Cat. No. E1531), luciferase assay reagent (Promega, Cat. No. E1501) was added and flash luminescence was measured using a BMG luminometer (FIG. 6a).
The steroidal not dissociated GR/PR antagonist RU486 was used as control (FIG. 6b).

[5] = test system: PMA-induced neutrophils influx in mice ear; test: PMA-induced ear edema in mice (myeloperoxidase); type: in vivo; details: for Myeloperoxidase (treated-untreated ear) ± S.E.M.: 24 hours after PMA
Procedure: (§1) Female albino mice (Han:NMRI) obtained form Harlan and weighing about 20-25 g were used. The animals were provided with standardized pellet diet (Altromin 8013) and had tap water freely available. The animals were accommodated in a climate room with a 12-hour light/dark cycle and kept in groups.
(§2) All test compounds were administered orally (0.2 ml/10 g body weight (bw) ) in a dose of 100 mg/kg p.o. The compounds were “dissolved” in 0.2% hydroxypropylmethylcellulose and olive oil mixed 1:1 (v/v).
Mice were lightly anaesthetized by ether and 50 ng PMA (5 μl) were applied to each side of the left ear. […] The animals were sacrificed by ether 24 hours later, and a biopsy (diameter 8 mm) was punched out from both ears to assess an increase of neutrophils in the left ear compared with the right ear. Tissue samples were homogenized in 1 ml 0.5% HTAB (Hexadecyl-trimethyl-ammonium-bromide; Sigma H-5882; dissolved in 0.05 M phosphate buffer, pH 6.0) using a tissue homogenizer (IKA-Ultraturrax T5; Janke & Kunkel, Staufen/Breisgau) at 30000 RPM for 15 seconds under cooling. After centrifugation (16000 g, 5 min) the supernatants were frozen until processing for myeloperoxidase (MPO). Determination in the supernatants for MPO, a neutrophil marker enzyme, served as a quantitative index for the neutrophil accumulation. MPO was determined spectrophotometrically at 450 nm using a microplate version of the method of Bradley (1982) and microplate reader (Vmax; Molecular Devices, Palo Alto) suitable for kinetic measurements. The values are expressed as increase in milli optical densities per min (m O.D./min) (Table 1a and b).

[6] = test system: tyrosine aminotransferase (TAT) in mice liver; test: TAT induction in mice liver; type: in vivo; details: for TAT-induction ± S.E.M.: mice liver, 8 hours after administration
Procedure: as §1, §2
Eight hours after compounds were administered the animals were killed and a punch (diameter 8 mm) was taken from the liver and immediately frozen in liquid nitrogen. The weighed liver punches were thawed for 3 minutes and homogenized after the addition 1 ml of phosphate buffer (pH 7.6) using a tissue homogenizer as described above. After centrifugation the supernatants were frozen at −20° C. until processing. For processing the samples were thawed and protein was determined using a kit employing 96 well microtiterplates commercially available from Fa. Pierce (No 23225). The activity of tyrosineaminotransferase (TAT) was determined in the supernatant, which was diluted 1:100 in phosphate buffer. The reaction is started by the addition of tyrosine in pyrodoxal-5-phosphate and α ketoglutaric acid at pH 7.6 and incubated for 30 minutes at 37° C. The reaction is stopped by the addition of 10 M KOH and a further incubation of 30 minutes is allowed for the formation of p-hydroxy-benzylaldehyde, which can be measured at 492 nm using a microplate reader. The values (optical densities) are calculated with respect to the protein concentration (O.D./mg protein) (Table 1a and b).

[7] = test system: croton-oil induced ear edema, carrageenan-induced paw edema; systemic side-effects of glucocorticoids; test: In vivo co-administration with dexamethasone or prednisolone in inflammation models
[8] = co-administered with prednisolone, each 100 mg/kg p.o.

Chain of recombinant human GR (P04150 whole entry, other chains not shown): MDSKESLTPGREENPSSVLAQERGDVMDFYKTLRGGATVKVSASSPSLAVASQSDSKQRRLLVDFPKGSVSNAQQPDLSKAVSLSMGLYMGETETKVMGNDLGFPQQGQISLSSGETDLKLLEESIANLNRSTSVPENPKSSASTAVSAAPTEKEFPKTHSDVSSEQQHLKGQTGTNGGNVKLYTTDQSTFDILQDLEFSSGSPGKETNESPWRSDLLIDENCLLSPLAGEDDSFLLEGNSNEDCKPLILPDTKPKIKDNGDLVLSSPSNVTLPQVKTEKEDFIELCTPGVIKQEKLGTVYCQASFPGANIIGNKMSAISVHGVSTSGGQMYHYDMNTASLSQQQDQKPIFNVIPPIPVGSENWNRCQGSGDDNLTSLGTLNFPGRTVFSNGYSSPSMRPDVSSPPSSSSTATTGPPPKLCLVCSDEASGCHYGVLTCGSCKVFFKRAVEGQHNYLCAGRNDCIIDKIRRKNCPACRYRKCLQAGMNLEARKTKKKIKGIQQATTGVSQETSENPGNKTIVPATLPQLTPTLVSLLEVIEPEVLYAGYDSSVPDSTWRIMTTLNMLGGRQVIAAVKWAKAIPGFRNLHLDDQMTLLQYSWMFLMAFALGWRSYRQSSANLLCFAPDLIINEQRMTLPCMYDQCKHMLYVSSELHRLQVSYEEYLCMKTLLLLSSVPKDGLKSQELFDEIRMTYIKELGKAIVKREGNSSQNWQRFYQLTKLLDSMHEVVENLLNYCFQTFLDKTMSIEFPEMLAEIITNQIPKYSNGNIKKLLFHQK

SMILES	IC50 (recombinant human GR)	antagonistic activity on dexamethasone-induced TAT-induction ([1]; rat hepatoma cells pre-stimulated with dexamethasone 3e-9 mol/l)	agonistic activity in induction of tyrosine aminotransferase (TAT) ([1]; rat hepatoma cells, 18 hours)	antagonistic activity in stimulation of MMTV promoter ([2]; HeLa cells pre-stimulated with 3e-8 mol/l dexamethasone)	agonistic activity in stimulation of MMTV promoter ([2]; HeLa cells, 24 hours)	agonistic activity in GR-mediated inhibition of LPS-induced IL-8 secretion ([3]; 18 hours)	antagonistic activity in GR-mediated inhibition of LPS-induced IL-8 secretion ([3]; IL-8 secretion inhibited with 3e-8 mol/l dexamethasone)	agonistic activity in inhibition of TNF-α induced activation of the ICAM-promoter ([4]; 24 hours)	antagonistic activity in inhibition of TNF-α induced activation of the ICAM-promoter ([4]; inhibited with 3e-8 mol/l dexamethasone)	antagonism of the anti-inflammatory effect of prednisolone in the ear inflammation model ([5]; 100 mg/kg p.o.)	Myeloperoxidase (treated-untreated ear) ± S.E.M. [5, 8]	Myeloperoxidase (treated-untreated ear) ± S.E.M. ([5]; compound alone 100 mg/kg p.o.)	antagonism of the prednisolone-induced induction of tyrosine aminotransferase in liver ([6]; 100 mg/kg p.o., mice)	TAT-induction ± S.E.M. [6, 8]	TAT-induction ± S.E.M. ([6]; compound alone 100 mg/kg p.o.)	systemic side-effect of the glucocorticoids (TAT in liver, blood glucose, free fatty acids level, renal function) ([7]; co-administration with dexamethasone or prednisolone)	anti-inflammatory activity of the glucocorticoid on co-administration ([7]; co-administration with dexamethasone or prednisolone in inflammation models)
COc1cc(C(=O)c2cccc(C)c2)c(Oc2c(Br)cc(CC(=O)O)cc2Br)cc1C(C)C [EXRS1370SE]	69 nM	shows antagonistic activity	does not show agonistic activity	antagonistic activity	no agonistic	no agonistic	no antagonistic activity	no agonistic	no antagonistic activity	does not significantly antagonize	140 ± 47 mO.D./min	443 ± 90 mO.D./min	can antagonize significantly	12.00 ± 1.26 O.D./mg protein	3.85 ± 0.43 O.D./mg protein	no/reduced a systemic side-effect	retain the anti-inflammatory activity of the glucocorticoid
CC#C[C@]1(O)CC[C@H]2[C@@H]3CCC4=CC(=O)CCC4=C3[C@@H](c3ccc(N(C)C)cc3)C[C@@]21C [Mifepristone, 11-[4-Dimethylamino]phenyl-17-hydroxy-17[1-propynyl]estra-4,9-dien-3-one]	–	–	–	–	–	–	–	–	–	–	1565 ± 435 mO.D./min	931 ± 261 mO.D./min	–	6.60 ± 0.38 O.D./mg protein	4.62 ± 0.36 O.D./mg protein	–	–
C[C@]12C=CC(=O)C=C1CC[C@@H]1[C@@H]2[C@@H](O)C[C@@]2(C)[C@H]1CC[C@]2(O)C(=O)CO [Prednisolone]	–	–	–	–	–	–	–	–	–	–	–	48 ± 13 mO.D./min and 34 ± 17 mO.D./min	–	–	17.75 ± 0.86 O.D./mg protein and 13.45 ± 0.93 O.D./mg protein	–	–
